Test [1] deals with serum bile acids. As to the kind of experiment: Fasting and post-prandial serum bile acids in children and adolescents on LUM001. In kind it is in vivo, human. The protocol:
LUM001 has been administered to forty patients under the age of 18 years old. […] The drug was administered once-a-day (QD) in the morning for fourteen days. […] These doses are similar to those using to treat patients with Barrett's esophagus or GERD.
The efficacy of LUM001 was determined by measuring total serum bile acids after eight days of dosing in children and adolescents under the age of eighteen. Thirty minutes before the next drug administration, at approximately 8 am in the morning, serum bile acid levels were measured. The child had refrained from food for 12 hours prior to this sample thus providing a fasted level of serum bile acid. After breakfast, serum bile acids were measured for up to the next 4 hours (8 am to noon) and the peak serum bile acid concentration noted.

For test [2], the system named is postprandial serum bile acids AUC. As to the kind of experiment: Inhibition of the postprandial rise in SBA, LUM001 compared to cholestyramine. The test is classed as in vivo, dogs. As for the experimental part:
LUM001 was dissolved in 0.2% Tween 80 at concentrations that required the administration of 0.2 ml dosing solution/kg of body weight at each dose tested. Cholestyramine was suspended in water at concentrations that required the administration of 2.5 ml/kg (500 mg/kg) and 1 ml/kg (200 mg/kg). The appropriate volume of solution formulation for each animal was placed into a gelatin capsule, Torpac Inc., size 13, Batch 594, East Hanover, N.J. and administered per os. Test compounds were administered as single oral doses to groups of dogs, 3 to 9 dogs per group at varying dosages. LUM001 and cholestyramine were administered in solution 30 minutes prior to feeding and blood samples collected at 30-minute intervals for four hours after feeding. LUM001 was given at 0, 0.02, 0.05, 0.2, 0.6, 2, 5 or 15 mg/kg. Cholestyramine was administered at 200 or 500 mg/kg. […] No dog received any one compound dosage more than once. SBA was measured by an enzymatic assay. SBA values are expressed as μg of total bile acids/ml of serum.

The subject of test [3] is serum total bile acid (SBA). As to the kind of experiment: Duration of action of LUM001 on dog SBA, Method 1 (two meals). In kind it is in vivo, beagle dogs. The settings on record: 0.2 mg/kg p.o. at 1 hr; full meal 0 hr, half meal 4 hr; 4.5 hr. The protocol:
Male beagle dogs were obtained from Covance Research Products, Cumberland Va. or Marshall Farms USA, Inc., North Rose N.Y. A total of 20 dogs, 1 to 5 years old, 6.8 to 15.6 kg body weight, were used in these experiments. The dogs were conditioned to a 12 hour light/dark cycle and maintained on a feeding restriction of 1 hour per day access to food (Richman Standard Certified Canine Diet #5007, PMI Nutrition, Inc., St. Louis Mo.) from 7 to 8 AM. They were trained to eat a special meal promptly within 20 minutes when presented (1 can. 397 g, Evanger's 100% Beef for Dogs, Evanger's Dog and Cat Food Co., Inc., Wheeling Ill., mixed with 50 g of sharp cheddar cheese.).
SBA was measured by an enzymatic assay. SBA values are expressed as μg of total bile acids/ml of serum.
In dogs a single experimental meal produces a postprandial rise in SBA that is elevated to a peak at 1 hour after feeding and constant for an additional 3 hours. Previous experiments (2) indicate that LUM001 remains active for more than 4.5 hours. To measure the duration of action of an ASBT inhibitor using postprandial SBA levels requires that in the control situation the SBA levels remain elevated and constant for the entire period of compound action, or that the compound be administered long before the postprandial rise occurs, and remain active in the empty digestive system for long periods before feeding. […]

Test [4] deals with Aspartate Aminotransferase (ASAT). As to the kind of experiment: Plasma aspartate aminotransferase in ZDF rats, week 3. The test is classed as in vivo. The settings on record: twice daily oral gavage.
Test [5] has as its system fecal excretion of [14C]taurocholic acid (TCA). As to the kind of experiment: Fecal excretion of [14C]taurocholic acid in hamsters, LUM002. The test is classed as in vivo, Syrian hamster. The settings on record: oral gavage in two half doses, feces collected 24 hours, n=4 nonfasted hamsters per group. As for the experimental part: To study the effect of LUM002 on fecal excretion of [^14C]taurocholic acid (TCA) in the Syrian hamster in vivo, [^14C]TCA was administered intraperitoneally 1 hour before dosing the test compound. Each animal was dosed with 1 μCi [^14C]TCA. LUM002 was dosed by oral gavage (5 mL/kg per administration) in either 5% (v/v) Solutol with 0.5% hydroxyethylcellulose (HEC) or 0.5% HEC alone. The first half of dose of test compound/vehicle was given 1 hour after [^14Cl]TCA injection, followed by the second half of dose 7 hours after the first dose of test compound/vehicle. Feces were collected for 24 hours after [^14Cl]TCA administration and aliquots from feces were combusted for determination of [^14Cl] excretion.
The ED200 (dose which doubles the fecal excretion of [^14Cl] label vs. control from dose response curve, including 95% Confidence interval) was calculated from a dose response curve.

Marks after values point to notes of the source that are not given here.

Consider `CCCCC1(CCCC)CS(=O)(=O)c2ccc(N(C)C)cc2[C@@H](c2ccc(OCc3ccc(C[N+]45CCN(CC4)CC5)cc3)cc2)[C@H]1O` [LUM001], for which the “Decrease of average fasting serum bile acid vs placebo patients” value in test [1] (LUM001 treated patients) amounted to 24%. Further, the “Decrease of average post-prandial peak serum bile acid vs placebo patients” value in test [1] (LUM001 treated patients) is recorded as 23%. Further, the “Average post-prandial peak serum bile acid level” value in test [1] (LUM001 treated patients (placebo 11.9)) was 9.2 µmol/L. Further, the “Morning Post-prandial peak serum bile acid” value in test [1] (Patient 304, 1 mg, after eight days of dosing) came out at 8.4 µmol/L; in test [1] (Patient 308, 1 mg, after eight days of dosing) it was 9.3 µmol/L; in test [1] (Patient 309, 1 mg, after eight days of dosing), 10.0 µmol/L; in test [1] (Patient 401, 2.5 mg, after eight days of dosing) it was 6.8 µmol/L. For the same compound, the “Fasting and post-prandial peak levels of serum bile acids” value in test [1] (children and adolescents, after eight days of dosing) was “generally decrease both the fasting and post-prandial peak levels of serum bile acids”. In addition, the “Inhibition of postprandial serum bile acids AUC (0-240 min) compared to cholestyramine” value in test [2] (LUM001 0.02-15 mg/kg vs cholestyramine 200 or 500 mg/kg, single oral doses) is listed as “superior inhibition of postprandial serum bile acids AUC, at a lower dose”. The Serum bile acids result in test [2] (single oral dose 0.02-15 mg/kg 30 minutes prior to feeding) is reported as “significantly decreased serum bile acids”. In addition, in test [3], the “Serum Bile Acid, mean” value is 2.5* μg/ml.
For the compound `CCCC[C@]1(CC)CS(=O)(=O)c2ccc(N(C)C)cc2[C@@H](c2cccc(NC(=O)N[C@@H]3O[C@H](COS(=O)(=O)[O-])[C@@H](O)[C@H](OCc4ccccc4)[C@H]3O)c2)[C@H]1O.CCO.O.[K+]` [LUM002, potassium((2R,3R,4S,5R,6R)-4-benzyloxy-6-{3-[3-((3S,4R,5R)-3-butyl-7-dimethylamino-3-ethyl-4-hydroxy-1,1-dioxo-2,3,4,5-tetrahydro-1H-benzo[b]thiepin-5-yl)-phenyl]-ureido}-3,5-dihydroxy-tetrahydro-pyran-2-ylmethyl)sulphate ethanolate, hydrate], in test [4], the “Plasma aspartate aminotransferase (ASAT)” value is on record as “statistically significant reduction in ASAT”. For the same compound, in test [5], the “Fecal excretion of bile acids ([14C]TCA label)” value is “significantly increased fecal excretion of bile acids”.

For the origin of these results see patent publication US20140271734A1, “BILE ACID RECYCLING INHIBITORS FOR TREATMENT OF BARRETT'S ESOPHAGUS AND GASTROESOPHAGEAL REFLUX DISEASE” (LUMENA PHARMACEUTICALS, INC., priority 2013, published 2014).
